The source of these data is PubChem BioAssay AID1259407 (Chemical Carcinogenesis Research Information System (CCRIS), 2018).

This data set concerns CCRIS mutagenicity, Ames/micronucleus/aberration tests. In words: CCRIS mutagenicity studies.
[1] abbreviates: Test System: AMES SALMONELLA TYPHIMURIUM, Strain/Indicator: TA98, Metabolic Activation: NONE, Method: STANDARD PLATE.
The mark [2] stands for this setting: Test System: AMES SALMONELLA TYPHIMURIUM, Strain/Indicator: TA100, Metabolic Activation: NONE, Method: STANDARD PLATE.
[3] abbreviates: Test System: AMES SALMONELLA TYPHIMURIUM, Strain/Indicator: TA98 (NR), Metabolic Activation: NONE, Method: STANDARD PLATE.

Molecules are shown by their SMILES. Active and inactive are the calls of the source. No rule for the calls is given here.

With `O=C(O)C(=O)Nc1cccc(-c2nn[nH]n2)c1`, the mutagenic call runs as follows: under setting [1], “inactive; negative”; (Test System: AMES SALMONELLA TYPHIMURIUM, Strain/Indicator: TA98, Metabolic Activation: RAT, LIVER, S-9, PHENOBARBITAL AND 5,6-BENZOFLAVONE, Method: STANDARD PLATE) “inactive; negative”; under setting [2], “inactive; negative”; (Test System: AMES SALMONELLA TYPHIMURIUM, Strain/Indicator: TA100, Metabolic Activation: RAT, LIVER, S-9, PHENOBARBITAL AND 5,6-BENZOFLAVONE, Method: STANDARD PLATE) “inactive; negative”; (Test System: AMES SALMONELLA TYPHIMURIUM, Strain/Indicator: TA1535, Metabolic Activation: NONE, Method: STANDARD PLATE) “inactive; negative”; (Test System: AMES SALMONELLA TYPHIMURIUM, Strain/Indicator: TA1535, Metabolic Activation: RAT, LIVER, S-9, PHENOBARBITAL AND 5,6-BENZOFLAVONE, Method: STANDARD PLATE) “inactive; negative”. Besides, the mutagenic call runs as follows: (Test System: AMES SALMONELLA TYPHIMURIUM, Strain/Indicator: TA1537, Metabolic Activation: NONE, Method: STANDARD PLATE) “inactive; negative”; (Test System: AMES SALMONELLA TYPHIMURIUM, Strain/Indicator: TA1537, Metabolic Activation: RAT, LIVER, S-9, PHENOBARBITAL AND 5,6-BENZOFLAVONE, Method: STANDARD PLATE) “inactive; negative”; (Test System: E. COLI, Strain/Indicator: WP2 UVRA, Metabolic Activation: NONE, Method: STANDARD PLATE) “inactive; negative”.

In the case of `FC(F)Cl`, the mutagenic call reads like this: (End Point: IN VITRO CHROMOSOMAL ABERRATIONS, Test System: CHL CELLS, Metabolic Activation: NONE) “inactive; negative”; (End Point: IN VITRO CHROMOSOMAL ABERRATIONS, Test System: CHL CELLS, Metabolic Activation: RAT, LIVER, S-9, SODIUM PHENOBARBITAL AND 5,6-BENZOFLAVONE) “inactive; negative”; (Test System: AMES SALMONELLA TYPHIMURIUM, Strain/Indicator: TA98, Metabolic Activation: NONE, Method: GAS EXPOSURE) “inactive; negative”; (Test System: AMES SALMONELLA TYPHIMURIUM, Strain/Indicator: TA98, Metabolic Activation: RAT LIVER S-9, PHENOBARBITAL AND BETA-NAPHTHOFLAVONE (40%), Method: GAS EXPOSURE) “inactive; negative”; (Test System: AMES SALMONELLA TYPHIMURIUM, Strain/Indicator: TA98, Metabolic Activation: RAT, LIVER, S-9, PHENOBARBITAL AND 5,6-BENZOFLAVONE, Method: GAS EXPOSURE) “inactive; negative”; (Test System: AMES SALMONELLA TYPHIMURIUM, Strain/Indicator: TA100, Metabolic Activation: RAT LIVER S-9, PHENOBARBITAL AND BETA-NAPHTHOFLAVONE (40%), Method: GAS EXPOSURE) “active; positive”. Besides, the mutagenic call by setting is: (Test System: AMES SALMONELLA TYPHIMURIUM, Strain/Indicator: TA100, Metabolic Activation: RAT, LIVER, S-9, PHENOBARBITAL AND 5,6-BENZOFLAVONE, Method: GAS EXPOSURE) “active; positive”; (Test System: AMES SALMONELLA TYPHIMURIUM, Strain/Indicator: TA1535, Metabolic Activation: NONE, Method: GAS EXPOSURE) “active; positive”; (Test System: AMES SALMONELLA TYPHIMURIUM, Strain/Indicator: TA1535, Metabolic Activation: RAT LIVER S-9, PHENOBARBITAL AND BETA-NAPHTHOFLAVONE (40%), Method: GAS EXPOSURE) “active; positive”; (Test System: AMES SALMONELLA TYPHIMURIUM, Strain/Indicator: TA1535, Metabolic Activation: RAT, LIVER, S-9, AROCLOR 1254, Method: DESICCATOR) “active; positive”; (Test System: AMES SALMONELLA TYPHIMURIUM, Strain/Indicator: TA1535, Metabolic Activation: RAT, LIVER, S-9, PHENOBARBITAL AND 5,6-BENZOFLAVONE, Method: GAS EXPOSURE) “active; positive”; (Test System: AMES SALMONELLA TYPHIMURIUM, Strain/Indicator: TA1537, Metabolic Activation: NONE, Method: GAS EXPOSURE) “inactive; negative”. In addition, the mutagenic call reads like this: (Test System: AMES SALMONELLA TYPHIMURIUM, Strain/Indicator: TA1537, Metabolic Activation: RAT LIVER S-9, PHENOBARBITAL AND BETA-NAPHTHOFLAVONE (40%), Method: GAS EXPOSURE) “inactive; negative”; (Test System: AMES SALMONELLA TYPHIMURIUM, Strain/Indicator: TA1537, Metabolic Activation: RAT, LIVER, S-9, PHENOBARBITAL AND 5,6-BENZOFLAVONE, Method: GAS EXPOSURE) “inactive; negative”; (Test System: E. COLI, Strain/Indicator: WP2 UVRA, Metabolic Activation: NONE, Method: GAS EXPOSURE) “inactive; negative”; (Test System: E. COLI, Strain/Indicator: WP2 UVRA, Metabolic Activation: RAT, LIVER, S-9, PHENOBARBITAL AND 5,6-BENZOFLAVONE, Method: GAS EXPOSURE) “inactive; negative”; (Test System: E.COLI, Strain/Indicator: WP2UVRA, Metabolic Activation: NONE, Method: GAS EXPOSURE) “inactive; negative”; (Test System: E.COLI, Strain/Indicator: WP2UVRA, Metabolic Activation: RAT LIVER S-9, PHENOBARBITAL AND BETA-NAPHTHOFLAVONE (40%), Method: GAS EXPOSURE) “inactive; negative”.

`O=Nc1c2ccccc2c2ccc3cccc4ccc1c2c43`: the mutagenic call by setting is: (Test System: AMES SALMONELLA TYPHIMURIUM, Strain/Indicator: TA97, Metabolic Activation: NONE, Method: STANDARD PLATE) “active; positive”; (Test System: AMES SALMONELLA TYPHIMURIUM, Strain/Indicator: TA98 (1,8-DNP6), Metabolic Activation: NONE, Method: STANDARD PLATE) “active; positive”; under setting [3], “active; positive”; (Test System: AMES SALMONELLA TYPHIMURIUM, Strain/Indicator: TA98, Metabolic Activation: NONE', Method: STANDARD PLATE) “active; positive”; under setting [1], “active; positive”; under setting [2], “active; positive”. Moreover, the mutagenic call was “active; positive” (Test System: AMES SALMONELLA TYPHIMURIUM, Strain/Indicator: TA104, Metabolic Activation: NONE, Method: STANDARD PLATE) and “active; positive” (Test System: CHINESE HAMSTER OVARY, Strain/Indicator: CHO-K1-BH4 (HGPRT), Metabolic Activation: NONE).

For `O[C@@H]1c2ccccc2-c2ccc3ccccc3c2[C@H]1O`, the mutagenic call by setting is: under setting [1], “inactive; negative”; (Test System: AMES SALMONELLA TYPHIMURIUM, Strain/Indicator: TA98, Metabolic Activation: RAT, LIVER, S-9, AROCLOR 1254, Method: STANDARD PLATE) “inactive; negative”; under setting [2], “inactive; negative”; (Test System: AMES SALMONELLA TYPHIMURIUM, Strain/Indicator: TA100, Metabolic Activation: RAT, LIVER, S-9, AROCLOR 1254, Method: STANDARD PLATE) “inactive; negative”.

Regarding `Nc1ccc(/C=C/c2ccc([N+](=O)[O-])cc2)cc1`, the mutagenic call by setting is: under setting [3], “inactive; negative”; (Test System: AMES SALMONELLA TYPHIMURIUM, Strain/Indicator: TA98 (NR), Metabolic Activation: S-9, Method: STANDARD PLATE) “active; positive”; under setting [1], “active; positive”; (Test System: AMES SALMONELLA TYPHIMURIUM, Strain/Indicator: TA98, Metabolic Activation: S-9, Method: STANDARD PLATE) “active; positive”; (Test System: AMES SALMONELLA TYPHIMURIUM, Strain/Indicator: TA100 (NR), Metabolic Activation: NONE, Method: STANDARD PLATE) “inactive; negative”; (Test System: AMES SALMONELLA TYPHIMURIUM, Strain/Indicator: TA100 (NR), Metabolic Activation: S-9, Method: STANDARD PLATE) “active; positive”. Besides, the mutagenic call under setting [2] was “inactive; negative” and the mutagenic call (Test System: AMES SALMONELLA TYPHIMURIUM, Strain/Indicator: TA100, Metabolic Activation: S-9, Method: STANDARD PLATE) is “active; positive”.
